Source: patent publication US20050038113A1, “Valproic acid and derivatives for the combinatorial therapeutic treatment of human cancers and for the treatment of tumor metastasis and minimal residual disease” (G2M Cancer Drugs AG, priority 2001, published 2005)

Assays:
[1] = tested on: primary AML blasts from AML patients; test: ex vivo differentiation, viability and apoptosis of leukemic blasts; type: cell-based, human; details: for myeloid differentiation: M0, M2 and M4 FAB subtypes
Method: Each point represents the mean of a set of data determined in triplicate (Example 15). VPA may cause synergistic therapeutic responses.
Cases were classified according to the French-American-British (FAB) classification (Bennett et al., Ann Intern Med 103, 1985). Cytogenetic analysis and RT-PCR tests were performed to rule out the presence of the APL associated fusion genes according to standard methods as described (Mandelli et al., Blood 90, 1997; Mancini et al., Br J Haematol. 91, 1995; Grimwade et al., Blood 90, 1999).

[2] = tested on: PML-RAR expressing leukemic cells; test: survival of mice suffering from acute promyelocytic leukemia; type: in vivo
Method: Mice that developed leukemia after inoculation with PML-RAR expressing cells were sacrificed. Single-cell suspensions of spleenocytes were prepared, and secondary recipient mice were reinoculated with 10^7 cells.
The numbers in parentheses indicate the number of mice in the representative experiment shown.

mouse embryos = details: when properly dosed; cited from earlier work
[3] = tested on: Renca-lacZ/EGFR renal carcinoma cells; test: MTT cell viability assay; type: cell-based, Mouse; details: 40 h
Source text: (§1) Renal cell carcinoma (Renca) cells stably transfected with plasmid pZeoSV2/lacZ encoding E. coli β-galactosidase, and either with plasmids pSV2ErbB2N and pSV2neo encoding c-erbB2 and neomycin resistance (Renca-lacZ/ErbB2) (Maurer-Gebhard et al., Cancer Res. 58: 2661-2666, 1998), or plasmids pLTR-EGFR or pLTR-EGFRvIII and pSV2neo encoding epidermal growth factor (EGF) receptor, the oncogenically activated EGF receptor variant EGFRvIII, and neomycin resistance (Renca-lacZ/EGFR and Renca-lacZ/EGFRvIII) (Schmidt et al., Oncogene 18: 1711-1721, 1999) were grown in RPMI-1640 medium supplemented with 8% FBS, 2 mM L-glutamine, 100 U/ml penicillin, 100 μg/ml streptomycin, 0.25 mg/ml Zeocin and 0.48 mg/ml G418.
(§2) Tumor cells were seeded in 96 well plates at a density of 1×10^4 cells/well in normal growth medium. SKBR3, A431 and SKOV3 cells were treated for 40 h with valproic acid at a final concentration of 3 mM, or 10 ng/ml of the recombinant anti-ErbB2 single chain antibody-toxin scFv(FRP5)-ETA (Wels et al., Cancer Res. 52: 6310-6317, 1992), or 10 ng/ml of the recombinant anti-EGF receptor single chain antibody-toxin scFv(14E1)-ETA (Schmidt et al., Brit. J. Cancer 75: 1575-1584, 1997), or a combination of valproic acid with either scFv(FRP5)-ETA or scFv(14E1)-ETA at the same concentrations. Renca-lacZ/ErbB2, Renca-lacZ/EGFR and Renca-lacZ/EGFRvIII cells were treated for 40 h with valproic acid at a final concentration of 1 mM, or 10 ng/ml of the recombinant anti-ErbB2 single chain antibody-toxin scFv(FRP5)-ETA, or 1 ng/ml of the recombinant anti-EGF receptor single chain antibody-toxin scFv(14E1)-ETA, or a combination of valproic acid with either scFv(FRP5)-ETA or scFv(14E1)-ETA at the same concentrations. Control cells were grown in the absence of valproic acid or antibody-toxins. Ten μl of 10 mg/ml 3-(4,5-dimethylthiazole-2-yl)-2,5 diphenyltetrazolium bromide (MTT) (Sigma, Deisenhofen, Germany) in PBS were added to each well and the cells were incubated for another 3 h. Cells were lysed by the addition of 90 μl of lysis buffer (20% SDS in 50% dimethyl formamide, pH 4.7). After solubilization of the formazan product, the absorption at 590 nm was determined in a microplate reader (Dynatech, Denkendorf, Germany) and the relative amount of viable cells in comparison to cells cultured without the addition of valproic acid or antibody-toxins was calculated.

[4] = tested on: Renca-lacZ/EGFRvIII renal carcinoma cells; test: MTT cell viability assay; type: cell-based, Mouse; details: 40 h
Source text: as §1, §2

[5] = tested on: Renca-lacZ/ErbB2 renal carcinoma cells; test: MTT cell viability assay; type: cell-based, Mouse; details: 40 h
Source text: as §1, §2

[6] = tested on: HCT-15 colon cancer cells; test: SRB-assay, reduction in total cellular biomass; type: cell-based, human
Method: (§3) The reduction in cellular biomass was measured by SRB-assay. For this assay cells were seeded in 96 well culture dishes at densities between 3000 and 8000 cells per well. […] Cultures were fixed with cold TCA producing a final TCA concentration of 10%. After 1 hour of incubation at 4° C. the cells were washed five times with water and air dried. Fixed cells were stained for 30 minutes with 0,4% (wt/vol) Sulforhodamine B (SRB) dissolved in 1% acetic acid and washed four times with 1% acetic acid to remove unbound dye. After air drying bound dye was solubilized with 10 mM unbuffered Tris base (pH 10,5) for 5 minutes. Optical densities were read on a Titertek Multiskan Plus spectrophotometric plate reader at 550 nm. Six test wells for each dose-response were set in parallel with 12 growth control wells per cell line. A measure of the cell population density at time 0 (To; the time at which the drug was added) was also made from 12 extra reference wells of cells fixed with TCA just prior to drug addition to the test plates. Background OD of complete medium with 5% FBS fixed and stained as described above was also determined in 12 separate wells. From the unprocessed OD data from each microtiter plate the background OD measurements (i.e. OD of complete medium plus stain and OD of cells at T0) were subtracted thus giving the reduction of cellular biomass of the cells.
This was in particular obvious when lower concentrations of 5-FU were used. E.g. […] Thus, this combinatorial activity of these two drugs must be explained via a synergistic activity of this treatment.

[7] = tested on: A-549 non-small cell lung cancer cells; test: SRB-assay, reduction in total cellular biomass; type: cell-based, human; details: 0.75 mM VPA in combination with Gemcitabine, 48 hours, compared to either alone
Method: as §3

[8] = tested on: COLO320DM colon cancer cells; test: SRB-assay, reduction in total cellular biomass; type: cell-based, human; details: 0.75 mM VPA in combination with Camptothecin, 48 hours
Method: as §3

[9] = 1 mM valproic acid + 1 ng/ml scFv(14E1)-ETA
[10] = single reagent, valproic acid 1 mM, scFv(14E1)-ETA 1 ng/ml

Q: Which myeloid differentiation ([1]; VPA as a single agent) does the source give for `CCCC(CCC)C(=O)O` [VPA, 2-propylpentanoic acid] here?
A: Its myeloid differentiation is “partial myeloid differentiation”.

Q: What about the “positive cells in the NBT dye reduction assay” value ([1]; VPA in combination with RA) of the same compound?
A: The value was “up to 65%”.

Q: What about the “myeloid differentiation of blasts from primary or relapsed AMLs” value ([1]; VPA in combination with RA, 3 and 2 cases studied) of the same compound?
A: Its value is “induced myeloid differentiation”.

Q: And the myeloid differentiation ([1]; VPA in combination with RA)?
A: The myeloid differentiation was “complete and thus synergistic myeloid differentiation”.

Q: What about the induction of apoptosis ([1]; combination of VPA plus RA compared to VPA or RA alone) of the same compound?
A: Its induction of apoptosis is “strongly enhanced, often in a synergistic fashion”.

Q: And the “apoptosis of AML blasts (FACS, propidium-iodide)” value ([1]; single agent, 4 cases tested)?
A: The value was “effective in inducing apoptosis”.

Q: What about the “leukemic blasts in peripheral blood, bone marrow, spleen” value ([2]; combination of retinoic acid and VPA, entire duration of the treatment) of the same compound?
A: The value was “no leukemic blasts were observed”.

Q: What about the “survival of leukemic mice” value ([2]; combination of retinoic acid pellet and VPA 400 mg/kg I.P. every 12 hours) of the same compound?
A: Its value is “greatest extension of survival”.

Q: What about the “survival of leukemic mice” value ([2]; single agent: retinoic acid pellets subcutaneously, VPA 400 mg/kg I.P. every 12 hours) of the same compound?
A: Its value is “significantly extended survival”.

Q: And the teratogenicity (mouse embryos)?
A: Its teratogenicity is “teratogenic in the majority of mouse embryos”.

Q: What about the “cell viability, combination treatment” value [3, 9] of the same compound?
A: The value was “pronounced additive therapeutic effect”.

Q: And the cell viability [3, 10]?
A: Its cell viability is “inhibit the viability”.

Q: What about the “cell viability, combination treatment” value [4, 9] of the same compound?
A: The value was “pronounced additive therapeutic effect”.

Q: What about the cell viability [4, 10] of the same compound?
A: The cell viability was “inhibit the viability”.

Q: And the “cell viability, combination treatment” value ([5]; 1 mM valproic acid + 10 ng/ml scFv(FRP5)-ETA)?
A: The value was “pronounced additive therapeutic effect”.

Q: What about the cell viability ([5]; single reagent, valproic acid 1 mM, scFv(FRP5)-ETA 10 ng/ml) of the same compound?
A: Its cell viability is “inhibit the viability”.

Q: And the “reduction in cellular biomass” value ([6]; 0.75 mM VPA in combination with 5-FU, 48 hours, compared to VPA or 5-FU alone)?
A: The value was “synergistic reduction in cellular biomass”.

Q: What about the “decrease in cellular biomass” value ([6]; 5-FU lower than 0.5 μM in combination with 0.75 mM VPA, compared to 0.75 mM VPA alone) of the same compound?
A: Its value is “stronger decrease in cellular biomass”.

Q: And the “reduction in cellular biomass” value [7]?
A: The value was “clear additive reduction in cellular biomass”.

Q: And the “reduction in cellular biomass” value [8]?
A: The value was “clear reduction in cellular biomass”.
